# Data taken from US20160235752A1, “COMPOSITIONS, METHODS OF USE, AND METHODS OF TREATMENT” (THE UNIVERSITY OF NEW ORLEANS, priority 2013, published 2016).
# Marks after values point to notes of the source that are not given here.
# Assays:
# [1] = tested on: Candida albicans (ATCC no. 10231); assay: MIC determination by broth microdilution (NCCLS), visual scoring; type: cell-based; conditions: for MIC80: Candida albicans, ATCC10231, read-out: MIC80 C. albicans
# Description: The antifungal activity of the 2,4,6-pyrimidinetrione analogs shown in Schemes 2-6 were evaluated in vitro using Candida albicans (ATCC no. 10231) and Candida glabrata (ATCC no 48435). All assays were done in accordance with NCCLS reference documents^29.
# (§1) Master stock concentrations of all tested compounds were prepared to ensure that the maximum final concentration of DMSO was 1% or less. Subsequent 2-fold serial dilutions were made using sterile water to a final concentration of 1280-5.00 μg/ml. A final 10-fold dilution of each drug was made by aliquotting 0.1 mL of each drug dilution into 0.9 mL of fungal suspension in RPMI 1640 media with 10 mM HEPES buffer added (see methodology below), giving final concentrations tested in the range of 128-0.5 μg/ml.
# (§2) Antifungal susceptibility studies and minimal inhibitory concentrations (MIC) values for Candida albicans (ATCC no. 10231) and Candida glabrata (ATCC no. 48435) were determined by the broth microdilution technique in accordance with NCCLS reference documents. Microdilution panels ranged from 0.5 to 128 μg/mL. All organisms were subcultured on Sabouraud agar and passaged to ensure purity and viability. The initiating inocula were prepared by picking 5-7 isolated colonies ˜1 mm in diameter from freshly prepared YM agar plates. Colonies were resuspended in sterile water, vortexed and the cell density was adjusted spectrophotometrically to the transmittance of a 0.5 McFarland standard at a wavelength of 530 nm, to yield a stock suspension of 1×10^6-5×10^6 cells/mL. The stock was allowed to hydrate for 30 minutes at room temperature. A working suspension was then made by diluting the stock 1:50 with RPMI 1640 media containing HEPES buffer. The working suspension was used for all assays. The plates were incubated at 35° C. for 48-72 hours in a humid atmosphere. Growth was scored visually. MIC values are defined as the lowest concentration of agent that prevents any discernible growth, ˜80% reduction of growth, as compared with drug-free control wells. All assays were run in parallel using either fluconazole or amphotericin B at the NCCLS recommended concentrations^29 as a drug control (Sigma-Aldrich).
# [2] = tested on: Candida glabrata (ATCC no. 48435); assay: as above; type: cell-based; conditions: for MIC80: Nakaseomyces glabratus, ATCC48435, read-out: MIC80 C. glabrata; for MIC80 C. glabrata: Table 1, 5-Acyl-2,4,6-pyrimidinetriones, >80% growth inhibition, RPMI, 1% DMSO
# Description: The antifungal activity of the 2,4,6-pyrimidinetrione analogs shown in Schemes 2-6 were evaluated in vitro using Candida albicans (ATCC no. 10231) and Candida glabrata (ATCC no 48435). All assays were done in accordance with NCCLS reference documents^29. The results of these screenings are summarized in Tables 1-9 as the minimal inhibitory concentrations that inhibited more than 80% fungal growth as compared to the positive controls in 1% DMSO and RPMI media. All MIC screens were done using a visual scoring method as opposed to spectroscopic methods of analysis, due to the physical properties of many of the compounds altering their absorbance spectra relative to the positive, negative and drug controls.
# as §1, with “None of the compounds tested over the course of these studies were soluble in water and DMSO was used to dilute each compound tested. Master” for “Master”
# as §2
# [3] = Table 1, 5-Acyl-2,4,6-pyrimidinetriones, >80% growth inhibition, RPMI, 1% DMSO
# [4] = Table 9, Benzenesuifonohydrazones of 5-Acylpyrimidinetrione
# [5] = Table 8, N-Acylhydrazones of 5-Acylpyrimidinetriones
# [6] = Table 8, values marked * (no footnote in this table)
structure (smiles),measurement,setting,value
"O=C1NC(=O)C(C(=O)c2ccccc2)C(=O)N1 [BA1, 5-benzoyl-pyrimidine-2,4,6-trione]",MIC80,[1],> 125 µg/mL
same,MIC80,[2],> 125 µg/mL
CN1C(=O)NC(=O)C(C(=O)c2ccccc2)C1=O (stereo not drawn) [BA2],MIC80 C. albicans,[1]; [3],"— (none of the 5-acyl-2,4,6-pyrimidinetriones, 5-alkylated pyrimidinetriones or the 5,5-dialkylated pyrimidinetriones showed antifungal activity through 125 μg/mL)"
same,MIC80 C. glabrata,[2],"— (none of the 5-acyl-2,4,6-pyrimidinetriones, 5-alkylated pyrimidinetriones or the 5,5-dialkylated pyrimidinetriones showed antifungal activity through 125 μg/mL)"
"CN1C(=O)C(C(=O)c2ccccc2)C(=O)N(C)C1=O [BA3, 5-benzoyl-1,3-dimethylpyrimidine-2,4,6-trione]",MIC80,[1],> 125 µg/mL
same,MIC80,[2],> 125 µg/mL
O=C1NC(=O)C(C(=O)c2cccc([N+](=O)[O-])c2)C(=O)N1 [BA4],MIC80 C. albicans,[1]; [3],"— (none of the 5-acyl-2,4,6-pyrimidinetriones, 5-alkylated pyrimidinetriones or the 5,5-dialkylated pyrimidinetriones showed antifungal activity through 125 μg/mL)"
same,MIC80 C. glabrata,[2],"— (none of the 5-acyl-2,4,6-pyrimidinetriones, 5-alkylated pyrimidinetriones or the 5,5-dialkylated pyrimidinetriones showed antifungal activity through 125 μg/mL)"
CN1C(=O)C(C(=O)c2cccc([N+](=O)[O-])c2)C(=O)N(C)C1=O [BA5],MIC80 C. albicans,[1]; [3],"— (none of the 5-acyl-2,4,6-pyrimidinetriones, 5-alkylated pyrimidinetriones or the 5,5-dialkylated pyrimidinetriones showed antifungal activity through 125 μg/mL)"
same,MIC80 C. glabrata,[2],"— (none of the 5-acyl-2,4,6-pyrimidinetriones, 5-alkylated pyrimidinetriones or the 5,5-dialkylated pyrimidinetriones showed antifungal activity through 125 μg/mL)"
O=C1NC(=O)C(C(=O)c2ccc([N+](=O)[O-])cc2)C(=O)N1 [BA6],MIC80 C. albicans,[1]; [3],"— (none of the 5-acyl-2,4,6-pyrimidinetriones, 5-alkylated pyrimidinetriones or the 5,5-dialkylated pyrimidinetriones showed antifungal activity through 125 μg/mL)"
same,MIC80 C. glabrata,[2],"— (none of the 5-acyl-2,4,6-pyrimidinetriones, 5-alkylated pyrimidinetriones or the 5,5-dialkylated pyrimidinetriones showed antifungal activity through 125 μg/mL)"
CN1C(=O)C(C(=O)c2ccc([N+](=O)[O-])cc2)C(=O)N(C)C1=O [BA7],MIC80 C. albicans,[1]; [3],"— (none of the 5-acyl-2,4,6-pyrimidinetriones, 5-alkylated pyrimidinetriones or the 5,5-dialkylated pyrimidinetriones showed antifungal activity through 125 μg/mL)"
same,MIC80 C. glabrata,[2],"— (none of the 5-acyl-2,4,6-pyrimidinetriones, 5-alkylated pyrimidinetriones or the 5,5-dialkylated pyrimidinetriones showed antifungal activity through 125 μg/mL)"
O=C1NC(=O)C(C(=O)c2cc([N+](=O)[O-])cc([N+](=O)[O-])c2)C(=O)N1 [BA8],MIC80 C. albicans,[1]; [3],"— (none of the 5-acyl-2,4,6-pyrimidinetriones, 5-alkylated pyrimidinetriones or the 5,5-dialkylated pyrimidinetriones showed antifungal activity through 125 μg/mL)"
same,MIC80 C. glabrata,[2],"— (none of the 5-acyl-2,4,6-pyrimidinetriones, 5-alkylated pyrimidinetriones or the 5,5-dialkylated pyrimidinetriones showed antifungal activity through 125 μg/mL)"
Cc1ccc(S(=O)(=O)N/N=C/C2C(=O)N(C)C(=O)N(C)C2=O)cc1 [BA115],MIC80 C. albicans,[1]; [4],"— (none of the 5-acyl-2,4,6-pyrimidinetriones, 5-alkylated pyrimidinetriones or the 5,5-dialkylated pyrimidinetriones showed antifungal activity through 125 μg/mL)"
"N/N=C/C1C(=O)NC(=O)NC1=O [BA116, 5-[(E)-hydrazinylidenemethyl]pyrimidine-2,4,6-trione]",MIC80,[1],125 µg/mL
"CN1C(=O)C(/C=N/N)C(=O)N(C)C1=O [BA117, 5-[(E)-hydrazinylidenemethyl]-1,3-dimethylpyrimidine-2,4,6-trione]",MIC80,[1],125 µg/mL
"C/C(=N\N)C1C(=O)NC(=O)NC1=O [BA118, 5-[(1E)-1-hydrazinylideneethyl]pyrimidine-2,4,6-trione]",MIC80,[1],> 125 µg/mL
"C/C(=N\N)C1C(=O)N(C)C(=O)N(C)C1=O [BA119, 5-[(1E)-1-hydrazinylideneethyl]-1,3-dimethylpyrimidine-2,4,6-trione]",MIC80,[1],> 125 µg/mL
"CN/N=C/C1C(=O)NC(=O)NC1=O [BA120, 5-[(E)-(2-methylhydrazinylidene)methyl]pyrimidine-2,4,6-trione]",MIC80,[1],> 125 µg/mL
"CN/N=C(\C)C1C(=O)NC(=O)NC1=O [BA121, 5-[(1E)-1-(2-methylhydrazinylidene)ethyl]pyrimidine-2,4,6-trione]",MIC80,[1],> 125 µg/mL
"CN/N=C/C1C(=O)N(C)C(=O)N(C)C1=O [BA122, 1,3-dimethyl-5-[(E)-(2-methylhydrazinylidene)methyl]pyrimidine-2,4,6-trione]",MIC80,[1],62 µg/mL
"CN/N=C(\C)C1C(=O)N(C)C(=O)N(C)C1=O [BA123, 1,3-dimethyl-5-[(1E)-1-(2-methylhydrazinylidene)ethyl]pyrimidine-2,4,6(1H,3H,5H)-trione]",MIC80,[1],> 125 µg/mL
CN1C(=O)C(/C=N/NC(=O)c2ccccc2)C(=O)N(C)C1=O [BA125],MIC80 C. albicans,[1]; [5],"— (none of the 5-acyl-2,4,6-pyrimidinetriones, 5-alkylated pyrimidinetriones or the 5,5-dialkylated pyrimidinetriones showed antifungal activity through 125 μg/mL)"
C/C(=N\NC(=O)c1ccccc1)C1C(=O)NC(=O)NC1=O [BA126],MIC80 C. albicans,[1]; [5],"— (none of the 5-acyl-2,4,6-pyrimidinetriones, 5-alkylated pyrimidinetriones or the 5,5-dialkylated pyrimidinetriones showed antifungal activity through 125 μg/mL)"
CC(=NNC(=O)c1ccccc1)C1C(=O)N(C)C(=O)N(C)C1=O [BA127],MIC80 C. albicans,[1]; [5],"— (none of the 5-acyl-2,4,6-pyrimidinetriones, 5-alkylated pyrimidinetriones or the 5,5-dialkylated pyrimidinetriones showed antifungal activity through 125 μg/mL)"
O=C1NC(=O)C(/C=N/NC(=O)c2ccc([N+](=O)[O-])cc2)C(=O)N1 [BA128],MIC80 C. albicans,[1]; [6],62* μg/mL
CN1C(=O)C(/C=N/NC(=O)c2ccc([N+](=O)[O-])cc2)C(=O)N(C)C1=O [BA129],MIC80 C. albicans,[1]; [6],62* μg/mL
CC(=NNC(=O)c1ccc([N+](=O)[O-])cc1)C1C(=O)NC(=O)NC1=O [BA130],MIC80 C. albicans,[1]; [5],"— (none of the 5-acyl-2,4,6-pyrimidinetriones, 5-alkylated pyrimidinetriones or the 5,5-dialkylated pyrimidinetriones showed antifungal activity through 125 μg/mL)"
COc1ccc(C(=O)N/N=C/C2C(=O)NC(=O)NC2=O)cc1 [BA132],MIC80 C. albicans,[1]; [5],"— (none of the 5-acyl-2,4,6-pyrimidinetriones, 5-alkylated pyrimidinetriones or the 5,5-dialkylated pyrimidinetriones showed antifungal activity through 125 μg/mL)"
COc1ccc(C(=O)N/N=C/C2C(=O)N(C)C(=O)N(C)C2=O)cc1 [BA133],MIC80 C. albicans,[1]; [6],62* μg/mL
COc1ccc(C(=O)NN=C(C)C2C(=O)NC(=O)NC2=O)cc1 [BA134],MIC80 C. albicans,[1]; [5],"— (none of the 5-acyl-2,4,6-pyrimidinetriones, 5-alkylated pyrimidinetriones or the 5,5-dialkylated pyrimidinetriones showed antifungal activity through 125 μg/mL)"
COc1ccc(C(=O)NN=C(C)C2C(=O)N(C)C(=O)N(C)C2=O)cc1 [BA135],MIC80 C. albicans,[1]; [5],"— (none of the 5-acyl-2,4,6-pyrimidinetriones, 5-alkylated pyrimidinetriones or the 5,5-dialkylated pyrimidinetriones showed antifungal activity through 125 μg/mL)"
O=C1NC(=O)C(C=NNS(=O)(=O)c2ccccc2)C(=O)N1 [BA136],MIC80 C. albicans,[1]; [4],"— (none of the 5-acyl-2,4,6-pyrimidinetriones, 5-alkylated pyrimidinetriones or the 5,5-dialkylated pyrimidinetriones showed antifungal activity through 125 μg/mL)"
CN1C(=O)C(C=NNS(=O)(=O)c2ccccc2)C(=O)N(C)C1=O [BA137],MIC80 C. albicans,[1]; [4],"— (none of the 5-acyl-2,4,6-pyrimidinetriones, 5-alkylated pyrimidinetriones or the 5,5-dialkylated pyrimidinetriones showed antifungal activity through 125 μg/mL)"
C/C(=N\NS(=O)(=O)c1ccccc1)C1C(=O)NC(=O)NC1=O [BA138],MIC80 C. albicans,[1]; [4],"— (none of the 5-acyl-2,4,6-pyrimidinetriones, 5-alkylated pyrimidinetriones or the 5,5-dialkylated pyrimidinetriones showed antifungal activity through 125 μg/mL)"
C/C(=N\NS(=O)(=O)c1ccccc1)C1C(=O)N(C)C(=O)N(C)C1=O [BA139],MIC80 C. albicans,[1]; [4],"— (none of the 5-acyl-2,4,6-pyrimidinetriones, 5-alkylated pyrimidinetriones or the 5,5-dialkylated pyrimidinetriones showed antifungal activity through 125 μg/mL)"
